Organism: Rattus norvegicus
Assay: DrugMatrix - Regimen: Daily Repeat
Format: toxicity, organism-based, Sprague-Dawley
Design: regimen Daily Repeat, gender Male, age 6-8 weeks
Details: in vivo, iv, vehicle 100 % SALINE; for ABSOLUTE BASOPHIL / ABSOLUTE EOSINOPHIL / ABSOLUTE LYMPHOCYTE / ABSOLUTE MONOCYTE / ABSOLUTE SEGMENTED NEUTROPHIL / BASOPHIL / EOSINOPHIL / ERYTHROCYTE COUNT / HEMATOCRIT / HEMOGLOBIN / LEUKOCYTE COUNT / LYMPHOCYTE / MEAN CORPUSCULAR HEMOGLOBIN / MEAN CORPUSCULAR HEMOGLOBIN CONCENTRATION / MEAN CORPUSCULAR VOLUME / MONOCYTE / NEUTROPHIL / NUCLEATED RED BLOOD CELLS / PLATELET COUNT: tissue Blood; for ALANINE AMINOTRANSFERASE / ALBUMIN / ALKALINE PHOSPHATASE / ASPARTATE AMINOTRANSFERASE / BLOOD UREA NITROGEN / CARBON DIOXIDE / CHLORIDE / CHOLESTEROL / CREATINE PHOSPHOKINASE / CREATININE / GLUCOSE / LACTATE DEHYDROGENASE / LIPASE / PHOSPHORUS / POTASSIUM / SODIUM / TOTAL BILIRUBIN / TOTAL PROTEIN / URIC ACID: tissue Plasma
[1] = 0 mg/kg, 72 h, dose level Control, time 3 day
[2] = 0 mg/kg, 120 h, dose level Control, time 5 day
[3] = 0.08 mg/kg, 72 h, dose level Low, time 3 day

CC[C@]1(O)C[C@@H]2CN(CCc3c([nH]c4ccccc34)[C@@](C(=O)OC)(c3cc4c(cc3OC)N(C)[C@H]3[C@@](O)(C(=O)OC)[C@H](OC(C)=O)[C@]5(CC)C=CCN6CC[C@]43[C@@H]65)C2)C1 [VINBLASTINE]
ABSOLUTE BASOPHIL [1]: 0 CELLS/uL | ABSOLUTE EOSINOPHIL [1]: 21.67 CELLS/uL | ABSOLUTE LYMPHOCYTE [1]: 10193.67 CELLS/uL | ABSOLUTE MONOCYTE [1]: 165.83 CELLS/uL | ABSOLUTE SEGMENTED NEUTROPHIL [1]: 702.17 CELLS/uL | BASOPHIL [1]: 0% | EOSINOPHIL [1]: 0.17% | ERYTHROCYTE COUNT [1]: 5.39 x10E6/uL | HEMATOCRIT [1]: 34.62% | HEMOGLOBIN [1]: 13.8 G/DL | LEUKOCYTE COUNT [1]: 11.08 x10E3/uL | LYMPHOCYTE [1]: 91.83% | MEAN CORPUSCULAR HEMOGLOBIN [1]: 25.68 pg | MEAN CORPUSCULAR HEMOGLOBIN CONCENTRATION [1]: 39.9 G/DL | MEAN CORPUSCULAR VOLUME [1]: 64.37 fL | MONOCYTE [1]: 1.5% | NEUTROPHIL [1]: 6.5% | NUCLEATED RED BLOOD CELLS [1]: 0 /100WBC | PLATELET COUNT [1]: 1202.83 x10E3/uL | ALANINE AMINOTRANSFERASE [1]: 55.5 u/L | ALBUMIN [1]: 4.22 G/DL | ALKALINE PHOSPHATASE [1]: 406.83 u/L | ASPARTATE AMINOTRANSFERASE [1]: 101.5 u/L | BLOOD UREA NITROGEN [1]: 13.5 mg/dL | CARBON DIOXIDE [1]: 30.33 mmol/L | CHLORIDE [1]: 102.17 MEQ/L | CHOLESTEROL [1]: 63.67 mg/dL | CREATINE PHOSPHOKINASE [1]: 732.67 u/L | CREATININE [1]: 0.2 mg/dL | GLUCOSE [1]: 157 mg/dL | LACTATE DEHYDROGENASE [1]: 442.5 u/L | LIPASE [1]: 10.83 u/L | PHOSPHORUS [1]: 12.68 mg/dL | POTASSIUM [1]: 5.67 MEQ/L | SODIUM [1]: 144 MEQ/L | TOTAL BILIRUBIN [1]: 0.15 mg/dL | TOTAL PROTEIN [1]: 6.02 G/DL | URIC ACID [1]: 1.55 mg/dL | ABSOLUTE BASOPHIL [2]: 0 CELLS/uL | ABSOLUTE EOSINOPHIL [2]: 17 CELLS/uL | ABSOLUTE LYMPHOCYTE [2]: 11849.17 CELLS/uL | ABSOLUTE MONOCYTE [2]: 69.83 CELLS/uL | ABSOLUTE SEGMENTED NEUTROPHIL [2]: 730.67 CELLS/uL | BASOPHIL [2]: 0% | EOSINOPHIL [2]: 0.17% | ERYTHROCYTE COUNT [2]: 5.93 x10E6/uL | HEMATOCRIT [2]: 37.42% | HEMOGLOBIN [2]: 14.4 G/DL | LEUKOCYTE COUNT [2]: 12.67 x10E3/uL | LYMPHOCYTE [2]: 93.17% | MEAN CORPUSCULAR HEMOGLOBIN [2]: 24.32 pg | MEAN CORPUSCULAR HEMOGLOBIN CONCENTRATION [2]: 38.5 G/DL | MEAN CORPUSCULAR VOLUME [2]: 63.08 fL | MONOCYTE [2]: 0.5% | NEUTROPHIL [2]: 6.17% | NUCLEATED RED BLOOD CELLS [2]: 0 /100WBC | PLATELET COUNT [2]: 1170.5 x10E3/uL | ALANINE AMINOTRANSFERASE [2]: 51 u/L | ALBUMIN [2]: 4.12 G/DL | ALKALINE PHOSPHATASE [2]: 392.67 u/L | ASPARTATE AMINOTRANSFERASE [2]: 81.67 u/L | BLOOD UREA NITROGEN [2]: 16.17 mg/dL | CARBON DIOXIDE [2]: 30.67 mmol/L | CHLORIDE [2]: 100.5 MEQ/L | CHOLESTEROL [2]: 64.83 mg/dL | CREATINE PHOSPHOKINASE [2]: 242.67 u/L | CREATININE [2]: 0.2 mg/dL | GLUCOSE [2]: 186.83 mg/dL | LACTATE DEHYDROGENASE [2]: 188 u/L | LIPASE [2]: 10.83 u/L | PHOSPHORUS [2]: 11.67 mg/dL | POTASSIUM [2]: 5.51 MEQ/L | SODIUM [2]: 142.55 MEQ/L | TOTAL BILIRUBIN [2]: 0.22 mg/dL | TOTAL PROTEIN [2]: 6.08 G/DL | URIC ACID [2]: 1.85 mg/dL | ABSOLUTE BASOPHIL [3]: 0 CELLS/uL | ABSOLUTE EOSINOPHIL [3]: 42 CELLS/uL | ABSOLUTE LYMPHOCYTE [3]: 6254.33 CELLS/uL | ABSOLUTE MONOCYTE [3]: 40 CELLS/uL | ABSOLUTE SEGMENTED NEUTROPHIL [3]: 297 CELLS/uL | BASOPHIL [3]: 0% | EOSINOPHIL [3]: 0.67% | ERYTHROCYTE COUNT [3]: 4.48 x10E6/uL | HEMATOCRIT [3]: 28.87% | HEMOGLOBIN [3]: 11.63 G/DL | LEUKOCYTE COUNT [3]: 6.63 x10E3/uL | LYMPHOCYTE [3]: 94.33% | MEAN CORPUSCULAR HEMOGLOBIN [3]: 26 pg | MEAN CORPUSCULAR HEMOGLOBIN CONCENTRATION [3]: 40.33 G/DL | MEAN CORPUSCULAR VOLUME [3]: 64.43 fL | MONOCYTE [3]: 0.67% | NEUTROPHIL [3]: 4.33% | NUCLEATED RED BLOOD CELLS [3]: 0 /100WBC | PLATELET COUNT [3]: 825.33 x10E3/uL | ALANINE AMINOTRANSFERASE [3]: 47.67 u/L | ALBUMIN [3]: 4.1 G/DL | ALKALINE PHOSPHATASE [3]: 395.67 u/L | ASPARTATE AMINOTRANSFERASE [3]: 99 u/L | BLOOD UREA NITROGEN [3]: 14 mg/dL | CARBON DIOXIDE [3]: 32.33 mmol/L | CHLORIDE [3]: 103.33 MEQ/L | CHOLESTEROL [3]: 67.33 mg/dL | CREATINE PHOSPHOKINASE [3]: 526.33 u/L | CREATININE [3]: 0.17 mg/dL | GLUCOSE [3]: 135 mg/dL | LACTATE DEHYDROGENASE [3]: 170.67 u/L | LIPASE [3]: 10.33 u/L | PHOSPHORUS [3]: 11.9 mg/dL | POTASSIUM [3]: 6.35 MEQ/L | SODIUM [3]: 144.8 MEQ/L | TOTAL BILIRUBIN [3]: 0.17 mg/dL | TOTAL PROTEIN [3]: 5.6 G/DL | URIC ACID [3]: 1.13 mg/dL

From ChEMBL document CHEMBL3885881, “DrugMatrix”
